Source: PubChem BioAssay (NCI)
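The compound was tested at five concentrations on cells cultured in 96-well plates, with a 48-hour exposure period. GI50 marks 50% less growth. TGI: concentration producing complete growth inhibition.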

How the values were obtained:
Assay in all cases: NCI tumour cell line growth inhibition, 48 h
[1] = test system: EKVX NSCLC
[2] = test system: SNB-75 CNS
[3] = test system: HT29 colon
[4] = test system: IGROV1 ovarian
[5] = test system: OVCAR-5 ovarian
[6] = test system: U251 CNS
[7] = test system: A549 NSCLC
[8] = test system: DMS 114 small cell lung
[9] = test system: K-562 leukemia
[10] = test system: SF-295 CNS
[11] = test system: SW-620 colon
[12] = test system: MALME-3M melanoma
[13] = test system: SK-OV-3 ovarian
[14] = test system: SF-539 CNS
[15] = test system: HL-60(TB) leukemia
[16] = test system: SF-268 CNS
[17] = test system: CAKI-1 renal
[18] = test system: SN12C renal
[19] = test system: SK-MEL-5 melanoma
[20] = test system: HOP-92 NSCLC
[21] = test system: CCRF-CEM leukemia
[22] = test system: MOLT-4 leukemia
[23] = test system: HCT-15 colon
[24] = test system: 786-0 renal
[25] = test system: SK-MEL-2 melanoma
[26] = test system: ACHN renal
[27] = test system: RPMI-8226 leukemia
[28] = test system: NCI-H226 lung
[29] = test system: TK-10 renal
[30] = test system: KM12 colon
[31] = test system: OVCAR-8 ovarian
[32] = test system: OVCAR-4 ovarian
[33] = test system: NCI-H23 lung
[34] = test system: DLD-1 colon
[35] = test system: SNB-78 CNS
[36] = test system: HOP-62 NSCLC
[37] = test system: NCI-H522 lung
[38] = test system: UO-31 renal
[39] = test system: OVCAR-3 ovarian
[40] = test system: M19-MEL melanoma
[41] = test system: M14 melanoma
[42] = test system: RXF 393 renal
[43] = test system: LXFL 529 NSCLC
[44] = test system: SR leukemia
[45] = test system: COLO 205 colon
[46] = test system: LOX IMVI melanoma
[47] = test system: HCT-116 colon
[48] = test system: NCI-H460 lung
[49] = test system: KM20L2 colon
[50] = test system: UACC-62 melanoma
[51] = test system: DMS 273 small cell lung
[52] = test system: HOP-18 NSCLC
[53] = test system: SNB-19 CNS
[54] = test system: SK-MEL-28 melanoma
[55] = test system: HCC-2998 colon
[56] = test system: A498 renal
[57] = test system: UACC-257 melanoma

Brc1ccccc1C1SCc2nc3ccccc3n21 (centres undefined)
TGI [1]: 45.6 µM | TGI [2]: 47.1 µM | TGI [3]: 60.9 µM | TGI [4]: 70.6 µM | TGI [5]: 68 µM | TGI [6]: 29.7 µM | TGI [7]: > 100 µM | TGI [8]: 94.4 µM | TGI [9]: > 100 µM | TGI [10]: 82.9 µM | TGI [11]: > 100 µM | TGI [12]: 48 µM | TGI [13]: 56.7 µM | TGI [14]: 33 µM | TGI [15]: 34.1 µM | TGI [16]: 66.1 µM | TGI [17]: 61.2 µM | TGI [18]: 25.8 µM | TGI [19]: 18.7 µM | TGI [20]: 26.8 µM | TGI [21]: > 100 µM | TGI [22]: > 100 µM | TGI [23]: 25.4 µM | TGI [24]: 29.4 µM | TGI [25]: 32.5 µM | TGI [26]: 81 µM | TGI [27]: > 100 µM | TGI [28]: 31.6 µM | TGI [29]: 49.3 µM | TGI [30]: 43.4 µM | TGI [31]: 57.1 µM | TGI [32]: 75.9 µM | TGI [33]: 33.3 µM | TGI [34]: 26.7 µM | TGI [35]: 83.7 µM | TGI [36]: 39.2 µM | TGI [37]: 33.9 µM | TGI [38]: 22.6 µM | TGI [39]: 26.7 µM | TGI [40]: 34.8 µM | TGI [41]: 31.4 µM | TGI [42]: 23.3 µM | TGI [43]: 77.9 µM | TGI [44]: 45.1 µM | TGI [45]: 32.1 µM | TGI [46]: 26 µM | TGI [47]: 26 µM | TGI [48]: 44.5 µM

[Cl-].[La+3].[O-]/N=C(\c1ccccc1)c1ccccn1.[O-]/N=C(\c1ccccc1)c1ccccn1.[O-]/N=C(\c1ccccc1)c1ccccn1
GI50 [1]: 40.6 µM | TGI [1]: > 89.5 µM | GI50 [2]: 27.8 µM | TGI [2]: 82 µM | GI50 [3]: 50.4 µM | TGI [3]: > 100 µM | GI50 [4]: 51.5 µM | TGI [4]: > 100 µM | GI50 [6]: 32 µM | TGI [6]: > 100 µM | GI50 [7]: 41.8 µM | TGI [7]: > 100 µM | GI50 [49]: 46.2 µM | TGI [49]: > 100 µM | GI50 [50]: 33.3 µM | TGI [50]: > 100 µM | GI50 [8]: 30.8 µM | TGI [8]: > 100 µM | GI50 [9]: 84.2 µM | TGI [9]: > 100 µM | GI50 [10]: 27.7 µM | TGI [10]: > 100 µM | GI50 [11]: 53.9 µM | TGI [11]: > 100 µM | GI50 [12]: 45.8 µM | TGI [12]: > 100 µM | GI50 [13]: 50.8 µM | TGI [13]: > 100 µM | GI50 [14]: 29.7 µM | TGI [14]: > 85.7 µM | GI50 [15]: 33.5 µM | TGI [15]: > 100 µM | GI50 [16]: 46 µM | TGI [16]: > 100 µM | GI50 [17]: 48.4 µM | TGI [17]: > 91.2 µM | GI50 [18]: 23.5 µM | TGI [18]: > 100 µM | GI50 [19]: 28.6 µM | TGI [19]: > 76.4 µM | GI50 [21]: 25.7 µM | TGI [21]: > 100 µM | GI50 [22]: 37.6 µM | TGI [22]: > 100 µM | GI50 [23]: 30.8 µM | TGI [23]: > 100 µM | GI50 [24]: 36 µM | TGI [24]: > 100 µM | GI50 [51]: 31.3 µM | TGI [51]: > 100 µM | GI50 [25]: 37.1 µM | TGI [25]: > 100 µM | GI50 [52]: 31.3 µM | TGI [52]: > 100 µM | GI50 [53]: 50.5 µM | TGI [53]: > 100 µM | GI50 [27]: 62.1 µM | TGI [27]: > 100 µM | GI50 [28]: 21.6 µM | TGI [28]: 51.2 µM | GI50 [29]: > 74.4 µM | TGI [29]: > 100 µM | GI50 [30]: 82 µM | TGI [30]: > 100 µM | GI50 [31]: 46 µM | TGI [31]: > 100 µM | GI50 [33]: 57.1 µM | TGI [33]: > 100 µM | GI50 [34]: 43.5 µM | TGI [34]: > 100 µM | GI50 [54]: 38.5 µM | TGI [54]: > 100 µM | GI50 [55]: > 100 µM | TGI [55]: > 100 µM | GI50 [56]: 77.6 µM | TGI [56]: > 100 µM | GI50 [35]: > 90.8 µM | TGI [35]: > 100 µM | GI50 [36]: 28.4 µM | TGI [36]: > 93.9 µM | GI50 [37]: 44.5 µM | TGI [37]: > 100 µM | GI50 [38]: 30.2 µM | TGI [38]: > 80.8 µM | GI50 [39]: 39.2 µM | TGI [39]: > 100 µM | GI50 [40]: 22 µM | TGI [40]: 50 µM | GI50 [41]: 20.2 µM | TGI [41]: 41.4 µM | GI50 [57]: 41.1 µM | TGI [57]: > 100 µM | GI50 [42]: 29.8 µM | TGI [42]: > 90.4 µM | GI50 [43]: 60.3 µM | TGI [43]: > 100 µM | GI50 [44]: 36.5 µM | TGI [44]: > 100 µM | GI50 [45]: 46.8 µM | TGI [45]: > 100 µM | GI50 [46]: 22.9 µM | TGI [46]: > 100 µM | GI50 [47]: 44 µM | TGI [47]: > 100 µM | GI50 [48]: 15 µM | TGI [48]: > 69.2 µM
